Test results: PubChem BioAssay AID248 (DTP/NCI, 2004)
Toxic doses and inconclusive results are not listed. Rule as the data show it: active = T/C of 150% or more; inactive = T/C below 125%.

Test system: L1210 leukemia ip in BDF1 mice, survival T/C
Assay: NCI In Vivo Anticancer Drug Screen. Data for tumor model L1210 Leukemia (intraperitoneal) in B6D2F1 (BDF1) mice
Conditions: endpoint: mean survival time, higher = longer survival
How it was run: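 Antitumor effect is assessed in tumor-bearing animals. Survival in the compound arm is compared with a vehicle-dosed control arm and expressed as their quotient.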

[1] = dose: 75.0 mg/kg/injection, schedule: Q01DX001 (ip), vehicle: other
[2] = dose: 150.0 mg/kg/injection, schedule: Q01DX001 (ip), vehicle: other
[3] = dose: 300.0 mg/kg/injection, schedule: Q01DX001 (ip), vehicle: other
[4] = dose: 100.0 mg/kg/injection, schedule: Q04DX003 (ip), vehicle: Klucel (hydroxypropylcellulose) (HPC)
[5] = dose: 5.0 mg/kg/injection, schedule: Q01DX001 (ip), vehicle: saline
[6] = dose: 10.0 mg/kg/injection, schedule: Q01DX001 (ip), vehicle: saline
[7] = dose: 20.0 mg/kg/injection, schedule: Q01DX001 (ip), vehicle: saline
[8] = dose: 40.0 mg/kg/injection, schedule: Q01DX001 (ip), vehicle: saline
[9] = dose: 100.0 mg/kg/injection, schedule: Q01DX001 (ip), vehicle: saline
[10] = dose: 200.0 mg/kg/injection, schedule: Q01DX001 (ip), vehicle: saline
[11] = dose: 100.0 mg/kg/injection, schedule: Q01DX009 (ip), vehicle: saline with Tween-80
[12] = dose: 200.0 mg/kg/injection, schedule: Q01DX009 (ip), vehicle: saline with Tween-80
[13] = dose: 200.0 mg/kg/injection, schedule: Q04DX003 (ip), vehicle: Klucel (hydroxypropylcellulose) (HPC)
[14] = dose: 400.0 mg/kg/injection, schedule: Q04DX003 (ip), vehicle: Klucel (hydroxypropylcellulose) (HPC)

Measured: T/C

CCC(C)(CO)N=Cc1ccccc1O.CCC(C)(O)/N=C/c1ccccc1O.[Cu].[Cu] (configuration not stated)
inactive: dose: 9.5 mg/kg/injection, schedule: Q01DX001 (ip), vehicle: other 100 % of control | dose: 19.0 mg/kg/injection, schedule: Q01DX001 (ip), vehicle: other 97 % of control | dose: 38.0 mg/kg/injection, schedule: Q01DX001 (ip), vehicle: other 86 % of control

C=C1C(=O)N2CCCC2C(=O)N1C (configuration not stated)
inactive: dose: 75.0 mg/kg/injection, schedule: Q04DX002 (ip), vehicle: saline 94 % of control | dose: 150.0 mg/kg/injection, schedule: Q04DX002 (ip), vehicle: saline 97 % of control | dose: 300.0 mg/kg/injection, schedule: Q04DX002 (ip), vehicle: saline 87 % of control

CCN1C(=O)C(CC)(Cc2ccccc2)C(=O)NC1=S (configuration not stated)
inactive: dose: 75.0 mg/kg/injection, schedule: Q01DX001 (ip), vehicle: alkali diluted with saline 103 % of control | [1] 108 % of control | dose: 150.0 mg/kg/injection, schedule: Q01DX001 (ip), vehicle: alkali diluted with saline 98 % of control | [2] 105 % of control | dose: 300.0 mg/kg/injection, schedule: Q01DX001 (ip), vehicle: alkali diluted with saline 108 % of control | [3] 103 % of control

CCOC(=O)NCC(CCN1CCCCC1)(CCN1CCCCC1)c1cccc2ccccc12
inactive: [4] 107 % of control

OCC1OC(n2ccc3cncnc32)C(O)C1O (configuration not stated)
inactive: [5] 106 % of control | [6] 109 % of control | [7] 106 % of control | [8] 106 % of control

Cc1cccc(/C=N\OCc2ccccc2)n1
inactive: dose: 100.0 mg/kg/injection, schedule: Q04DX003 (ip), vehicle: saline with Tween-80 98 % of control | dose: 200.0 mg/kg/injection, schedule: Q04DX003 (ip), vehicle: saline with Tween-80 98 % of control | dose: 400.0 mg/kg/injection, schedule: Q04DX003 (ip), vehicle: saline with Tween-80 98 % of control

COC1OC(CO)C(N(C)C(C)=O)C1O (configuration not stated)
inactive: [9] 94 % of control | [10] 103 % of control | dose: 400.0 mg/kg/injection, schedule: Q01DX001 (ip), vehicle: saline 97 % of control

C(=N/Nc1ccccn1)/c1cccnc1
inactive: dose: 100.0 mg/kg/injection, schedule: Q01DX001 (ip), vehicle: saline with Tween-80 112 % of control

Cc1ccccc1N1CCN(CCO)CC1
inactive: dose: 12.5 mg/kg/injection, schedule: Q01DX001 (ip), vehicle: saline 105 % of control | dose: 12.5 mg/kg/injection, schedule: Q04DX003 (ip), vehicle: saline 100 % of control | dose: 25.0 mg/kg/injection, schedule: Q01DX001 (ip), vehicle: saline 105 % of control | dose: 25.0 mg/kg/injection, schedule: Q04DX003 (ip), vehicle: saline 110 % of control | dose: 50.0 mg/kg/injection, schedule: Q01DX001 (ip), vehicle: saline 100 % of control | dose: 50.0 mg/kg/injection, schedule: Q04DX003 (ip), vehicle: saline 110 % of control

COc1ccc(OC)c(NC(=S)N/N=C(/C)c2cc([N+](=O)[O-])c(O)cc2O)c1
inactive: dose: 12.5 mg/kg/injection, schedule: Q04DX002 (ip), vehicle: Klucel (hydroxypropylcellulose) (HPC) 102 % of control | dose: 25.0 mg/kg/injection, schedule: Q04DX002 (ip), vehicle: Klucel (hydroxypropylcellulose) (HPC) 102 % of control | dose: 50.0 mg/kg/injection, schedule: Q04DX002 (ip), vehicle: Klucel (hydroxypropylcellulose) (HPC) 105 % of control

O=C(/C=C/c1cccc(Br)c1)c1ccc(Cl)cc1
inactive: dose: 50.0 mg/kg/injection, schedule: Q01DX009 (ip), vehicle: other 107 % of control | dose: 100.0 mg/kg/injection, schedule: Q01DX009 (ip), vehicle: other 92 % of control | dose: 100.0 mg/kg/injection, schedule: Q04DX003 (ip), vehicle: other 89 % of control | dose: 200.0 mg/kg/injection, schedule: Q01DX009 (ip), vehicle: other 96 % of control | dose: 200.0 mg/kg/injection, schedule: Q04DX003 (ip), vehicle: other 100 % of control

CC(=O)N/N=C/c1cccc([N+](=O)[O-])c1
inactive: dose: 50.0 mg/kg/injection, schedule: Q01DX009 (ip), vehicle: saline with Tween-80 102 % of control | [11] 97 % of control | [12] 94 % of control

O=C1CCCC2C1CCC1C3CCC(O)CC3CCC21 (configuration not stated)
inactive: dose: 100.0 mg/kg/injection, schedule: Q01DX001 (sc), vehicle: steriod suspending solution 91 % of control | dose: 200.0 mg/kg/injection, schedule: Q01DX001 (sc), vehicle: steriod suspending solution 93 % of control | dose: 400.0 mg/kg/injection, schedule: Q01DX001 (sc), vehicle: steriod suspending solution 95 % of control

C#CCOC(=O)NCC
inactive: dose: 100.0 mg/kg/injection, schedule: Q04DX003 (ip), vehicle: saline 101 % of control | dose: 200.0 mg/kg/injection, schedule: Q04DX003 (ip), vehicle: saline 102 % of control | dose: 400.0 mg/kg/injection, schedule: Q04DX003 (ip), vehicle: saline 96 % of control

CCN=C1C=C/C(=C(/c2ccc(NCC)c(C)c2)c2cc(O)c(S(=O)(=O)O)cc2S(=O)(=O)O)C=C1C
inactive: dose: 50.0 mg/kg/injection, schedule: Q01DX009 (ip), vehicle: saline 97 % of control | dose: 100.0 mg/kg/injection, schedule: Q01DX009 (ip), vehicle: saline 97 % of control | dose: 200.0 mg/kg/injection, schedule: Q01DX009 (ip), vehicle: saline 104 % of control

O=[N+]([O-])c1ccc2nocc2c1
inactive: [4] 95 % of control

CC1CCC(C2=CSC3CCCCC3N2)C(C)C1 (configuration not stated)
inactive: dose: 100.0 mg/kg/injection, schedule: Q04DX002 (ip), vehicle: other 111 % of control | dose: 200.0 mg/kg/injection, schedule: Q04DX002 (ip), vehicle: other 101 % of control | dose: 400.0 mg/kg/injection, schedule: Q04DX002 (ip), vehicle: other 97 % of control

Nc1ccc(SC(Sc2ccc(N)cc2)c2ccccc2)cc1
inactive: [1] 105 % of control | dose: 75.0 mg/kg/injection, schedule: Q04DX003 (ip), vehicle: other 101 % of control | [2] 107 % of control | dose: 150.0 mg/kg/injection, schedule: Q04DX003 (ip), vehicle: other 89 % of control | [3] 100 % of control | dose: 300.0 mg/kg/injection, schedule: Q04DX003 (ip), vehicle: other 92 % of control

CC(=O)OCCC#CCCCO
inactive: [11] 90 % of control | [12] 98 % of control | dose: 400.0 mg/kg/injection, schedule: Q01DX009 (ip), vehicle: saline with Tween-80 97 % of control

CC(C)CC(=O)OCc1ccc2c(c1)OCO2
inactive: dose: 222.0 mg/kg/injection, schedule: Q01DX Z (ip), vehicle: saline 109 % of control | dose: 333.0 mg/kg/injection, schedule: Q01DX Z (ip), vehicle: saline 102 % of control | dose: 500.0 mg/kg/injection, schedule: Q01DX Z (ip), vehicle: saline 108 % of control

O=[N+]([O-])c1cccc(S(=O)(=O)NNc2c(Cl)cc(Cl)cc2Cl)c1
inactive: [4] 94 % of control | [13] 93 % of control | [14] 96 % of control

Clc1ccc(SCN(CSc2ccc(Cl)cc2)Cc2ccccc2)cc1
inactive: [9] 91 % of control | [10] 90 % of control

NNC(=O)COc1ccccc1
inactive: [9] 106 % of control

CN(C)C(=O)Sc1ccc(S(=O)(=O)F)cc1Cl
inactive: [4] 101 % of control | [13] 106 % of control | [14] 101 % of control

O=C1C=C(O)c2[nH]c(=O)ccc2C1=O
inactive: [5] 97 % of control | [6] 101 % of control | [7] 97 % of control | [8] 97 % of control

Nc1nc(O)c2[nH]c(N=Nc3ccc(-c4ccc(N=Nc5nc6nc(N)nc(O)c6[nH]5)cc4)cc3)nc2n1
inactive: [4] 98 % of control | [13] 93 % of control | [14] 88 % of control

CCCCCCCC(=O)N1CCCCC1C (configuration not stated)
inactive: dose: 100.0 mg/kg/injection, schedule: Q04DX002 (ip), vehicle: Klucel (hydroxypropylcellulose) (HPC) 103 % of control | dose: 200.0 mg/kg/injection, schedule: Q04DX002 (ip), vehicle: Klucel (hydroxypropylcellulose) (HPC) 103 % of control | dose: 400.0 mg/kg/injection, schedule: Q04DX002 (ip), vehicle: Klucel (hydroxypropylcellulose) (HPC) 98 % of control

O=C(NCCc1ccc(S(=O)(=O)Nc2ccc(N=Nc3ccc(N=Nc4ccccc4)cc3)cc2)cc1)C(N1CC1)(N1CC1)N1CC1
inactive: dose: 15.0 mg/kg/injection, schedule: Q01DX001 (ip), vehicle: saline 104 % of control | dose: 30.0 mg/kg/injection, schedule: Q01DX001 (ip), vehicle: saline 106 % of control
